Measurements as given in US9724344B2, “Enhanced delivery of drug compositions to treat life threatening infections” (BOARD OF REGENTS, THE UNIVERSITY OF TEXAS SYSTEM, priority 2004, dated 2017).

Columns and labels:
[1] = Dissolution testing, United States Pharmacopeia 24 Type 2 apparatus (Examples 19-23); format: physicochemical; details: Avg
Description: For Examples 19-23, dissolution testing is performed on the samples using a United States Pharmacopeia 24 Type 2 apparatus (Distek Dissolution System […] with a TCS0200C heater/circulator; Crescent Scientific Pvt. Ltd.; Goregaon-East, Mumbai, India).

IL-12p70 = test: ELISA of BAL supernatant for IL-12 elevation (inflammatory response); format: in vivo, mice; details: pulmonary administration, compared to excipients alone and saline
Description: FIG. 5 is a chart depicting lung concentration levels of IL-12p70 for an embodiment of the present invention. Mean IL-12p70 concentrations measured according to Example 32 via ELISA assay of the positive control, negative control and BAL supernatants of sacrificed mice. Surgery was performed on sacrificed mice to expose the pleural cavity and trachea at the throat. A small incision was cut into the trachea and a cannula consisting of a 23 gauge needle with a sheath of plastic tubing (0.037″ outside diameter (OD) and 0.025″ ID) was inserted through the incision to the base of the trachea and clamped to seal the opening. An aliquot (0.75 mL) of phosphate buffered saline was instilled through the cannula into the lungs and then removed to wash the bronchial and alveolar surfaces. This process was repeated for a total of three washes. The phosphate buffered saline containing cells was placed into centrifuge vials and centrifuged at 300 rpm (MiniSpin Plus. Eppendorf International, Hamburg, Del.). The supernatant was removed leaving the collected cells in the pellet. The supernatant from the BAL (Bronchoalveolar Lavage) was analyzed by enzyme-linked immunosorbent assay (ELISA) for IL-12 elevation (n=2 per sample tested).

airway macrophages = test: Macrophage uptake of ITZ dosed via pulmonary administration; format: in vivo; details: samples taken on days 1, 3, 8 and 12
From the text: Cells (airway macrophages) were recovered from the lung and subjected to drug extraction and analyzed by mass spectroscopy for confirmation of ITZ presence in the macrophage.

[2] = cited from earlier work

Structure (SMILES)	Percent Dissolved ([1]; 2 minutes) [%]	Percent Dissolved ([1]; 5 minutes) [%]	Percent Dissolved ([1]; 10 minutes) [%]	Percent Dissolved ([1]; 15 minutes) [%]	Percent Dissolved ([1]; 20 minutes) [%]	Percent Dissolved ([1]; 25 minutes) [%]	Percent Dissolved ([1]; 30 minutes) [%]	Percent Dissolved ([1]; 60 minutes) [%]	Percent Dissolved ([1]; 120 minutes) [%]	IL-12 elevation in BAL supernatant (IL-12p70)	ITZ presence in airway macrophages (mass spectroscopy) (airway macrophages)	aqueous solubility [2] [µg/mL]
CCC(C)n1ncn(-c2ccc(N3CCN(c4ccc(OCC5COC(Cn6cncn6)(c6ccc(Cl)cc6Cl)O5)cc4)CC3)cc2)c1=O (stereo not drawn) [Comparative Example 25]	3.1	4.8	9.1	12.7	15.5	18.2	19.7	38.9	100.0	–	–	–
CCC(C)n1ncn(-c2ccc(N3CCN(c4ccc(OCC5COC(Cn6cncn6)(c6ccc(Cl)cc6Cl)O5)cc4)CC3)cc2)c1=O (stereo not drawn) [ITZ, itraconazole]	–	–	–	–	–	–	–	–	–	does not result in IL-12 elevation	all showed the presence of ITZ	< 1
